According to ChEMBL document CHEMBL4364304, “Discovery, synthesis, and in vitro evaluation of a novel bioactive peptide for ACE and DPP-IV inhibitory activity” (Eur J Med Chem, 2019):
Residues, ends and D or L forms follow the SMILES beside them.

Columns and labels:
[1] = biological target: T1, Angiotensin-converting enzyme (Sus scrofa, UniProt F1RRW5); experiment: (§1) Inhibition of porcine angiotensin converting enzyme assessed as release of hippuric acid using hippuryl-histidyl-leucine as substrate measured after 30 mins by spectrophotometry analysis
T1 sequence (F1RRW5 whole entry): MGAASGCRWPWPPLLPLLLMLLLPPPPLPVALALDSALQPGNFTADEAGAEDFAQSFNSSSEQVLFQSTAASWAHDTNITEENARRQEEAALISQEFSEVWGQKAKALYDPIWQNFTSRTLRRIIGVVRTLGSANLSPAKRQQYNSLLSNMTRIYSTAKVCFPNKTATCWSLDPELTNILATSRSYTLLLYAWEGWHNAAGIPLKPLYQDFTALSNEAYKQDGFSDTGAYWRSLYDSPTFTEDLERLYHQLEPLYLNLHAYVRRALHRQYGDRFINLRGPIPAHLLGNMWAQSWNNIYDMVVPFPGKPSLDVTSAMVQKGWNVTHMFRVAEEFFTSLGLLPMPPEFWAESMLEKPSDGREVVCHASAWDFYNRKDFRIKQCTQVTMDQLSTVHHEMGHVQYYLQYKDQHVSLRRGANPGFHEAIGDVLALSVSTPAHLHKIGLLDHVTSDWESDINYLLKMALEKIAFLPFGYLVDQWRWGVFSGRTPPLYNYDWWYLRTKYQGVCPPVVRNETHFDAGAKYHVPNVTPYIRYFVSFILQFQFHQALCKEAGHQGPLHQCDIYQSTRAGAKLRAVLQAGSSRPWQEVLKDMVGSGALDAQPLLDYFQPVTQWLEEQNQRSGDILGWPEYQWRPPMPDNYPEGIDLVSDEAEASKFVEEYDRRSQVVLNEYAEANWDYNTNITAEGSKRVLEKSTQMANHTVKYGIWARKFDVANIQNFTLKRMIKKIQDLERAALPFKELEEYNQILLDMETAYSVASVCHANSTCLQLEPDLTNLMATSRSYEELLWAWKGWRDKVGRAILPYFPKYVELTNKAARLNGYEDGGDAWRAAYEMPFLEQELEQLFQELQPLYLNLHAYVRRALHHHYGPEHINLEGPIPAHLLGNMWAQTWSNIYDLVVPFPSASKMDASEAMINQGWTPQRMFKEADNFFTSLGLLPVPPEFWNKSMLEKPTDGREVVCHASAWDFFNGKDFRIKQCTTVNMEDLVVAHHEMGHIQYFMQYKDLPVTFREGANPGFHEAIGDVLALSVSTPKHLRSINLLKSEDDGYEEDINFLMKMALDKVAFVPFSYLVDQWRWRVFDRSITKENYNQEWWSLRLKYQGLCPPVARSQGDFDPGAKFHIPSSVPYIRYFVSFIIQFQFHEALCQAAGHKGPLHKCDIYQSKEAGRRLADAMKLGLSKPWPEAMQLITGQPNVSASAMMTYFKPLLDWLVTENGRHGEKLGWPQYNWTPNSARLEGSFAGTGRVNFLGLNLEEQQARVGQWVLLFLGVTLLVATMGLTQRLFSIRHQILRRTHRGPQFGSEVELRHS

[2] = biological target: T2, Angiotensin-converting enzyme (Sus scrofa) (UniProt F1RRW5); experiment: as §1
T2 sequence (whole entry): T1 sequence (F1RRW5 whole entry)

Dipeptidyl peptidase 4 = Dipeptidyl peptidase 4 (Homo sapiens, UniProt P27487); experiment: Inhibition of recombinant human DPP4 using H-Gly-Pro conjugated amino methyl coumarin as substrate by fluorometric assay
Chain of Dipeptidyl peptidase 4 (P27487 whole entry): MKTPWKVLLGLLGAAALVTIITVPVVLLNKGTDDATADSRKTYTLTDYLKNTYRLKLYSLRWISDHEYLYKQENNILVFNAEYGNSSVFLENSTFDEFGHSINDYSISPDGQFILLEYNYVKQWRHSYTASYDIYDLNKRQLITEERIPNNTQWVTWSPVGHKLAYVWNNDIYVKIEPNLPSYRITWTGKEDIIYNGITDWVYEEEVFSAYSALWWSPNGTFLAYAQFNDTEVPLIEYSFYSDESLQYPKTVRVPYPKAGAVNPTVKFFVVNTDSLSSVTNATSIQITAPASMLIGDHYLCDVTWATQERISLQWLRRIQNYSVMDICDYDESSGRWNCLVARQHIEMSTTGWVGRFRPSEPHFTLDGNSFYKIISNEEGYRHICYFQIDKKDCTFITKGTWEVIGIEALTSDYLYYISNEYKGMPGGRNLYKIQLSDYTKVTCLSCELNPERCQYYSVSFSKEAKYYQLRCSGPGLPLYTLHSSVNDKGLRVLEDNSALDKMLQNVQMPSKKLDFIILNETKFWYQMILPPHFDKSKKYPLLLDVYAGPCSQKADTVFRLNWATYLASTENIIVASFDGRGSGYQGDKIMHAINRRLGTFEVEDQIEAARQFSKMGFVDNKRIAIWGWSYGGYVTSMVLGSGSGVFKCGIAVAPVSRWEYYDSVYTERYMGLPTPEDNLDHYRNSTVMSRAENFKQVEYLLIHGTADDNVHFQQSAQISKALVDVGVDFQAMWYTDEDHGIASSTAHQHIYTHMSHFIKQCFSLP

IC50 [1]	inhibition [2]	IC50 (Dipeptidyl peptidase 4)	SMILES
74.3 µM	Dose-dependent effect	3.83 mM	CC[C@H](C)[C@H](NC(=O)[C@H](CC(C)C)NC(=O)[C@@H]1CCCN1C(=O)[C@H](CC(C)C)NC(=O)[C@@H]1CCCN1C(=O)[C@@H](NC(=O)CN)[C@@H](C)CC)C(=O)O (H-GIPLPLI-OH)
300 µM			CC[C@H](C)[C@H](N)C(=O)N[C@@H](CCC(N)=O)C(=O)N[C@@H](CCCCN)C(=O)N[C@H](C(=O)N[C@@H](C)C(=O)NCC(=O)N[C@H](C(=O)N[C@@H](Cc1c[nH]c2ccccc12)C(=O)O)[C@@H](C)O)C(C)C (H-IQKVAGTW-OH)
